Where two headings read alike, the source gives them in different places.
What was measured:
SARS-CoV-2 Mpro = SARS-CoV-2 Mpro (Severe acute respiratory syndrome coronavirus 2, UniProt P0DTD1); assay: SARS-CoV-2 Mpro enzymatic inhibition assay (fluorescence); assay type: biochemical
Outline: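 Recombinant Mpro expressed in E. coli was preincubated 30 min at room temperature with 10-point, 3-fold serially diluted compound in duplicate. Fluorogenic substrate was then added and incubated 60 min at 30° C, and fluorescence read at Ex/Em 340/490 nm. IC50 came from a four-parameter fit of % inhibition.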

HCoV-229E Mpro = HCoV-229E Mpro (Human coronavirus 229E, UniProt P0C6X1); assay: HCoV-229E Mpro enzymatic inhibition assay (fluorescence); assay type: biochemical
HCoV-229E Mpro, sequence (P0C6X1 2966-3267 limits assumed): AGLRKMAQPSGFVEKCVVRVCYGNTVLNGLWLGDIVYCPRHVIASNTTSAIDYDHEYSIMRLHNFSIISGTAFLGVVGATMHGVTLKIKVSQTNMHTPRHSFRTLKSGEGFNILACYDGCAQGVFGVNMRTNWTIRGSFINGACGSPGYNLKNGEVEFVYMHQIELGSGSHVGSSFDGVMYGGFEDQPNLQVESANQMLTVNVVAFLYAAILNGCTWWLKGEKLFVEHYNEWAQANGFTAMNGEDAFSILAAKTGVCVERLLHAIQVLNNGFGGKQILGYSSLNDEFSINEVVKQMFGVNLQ

HCoV-HKU1 Mpro = HCoV-HKU1 Mpro (Human coronavirus HKU1, UniProt P0C6X2); assay: HCoV-HKU1 Mpro enzymatic inhibition assay (fluorescence); assay type: biochemical
HCoV-HKU1 Mpro, sequence (P0C6X2 3335-3637 limits assumed): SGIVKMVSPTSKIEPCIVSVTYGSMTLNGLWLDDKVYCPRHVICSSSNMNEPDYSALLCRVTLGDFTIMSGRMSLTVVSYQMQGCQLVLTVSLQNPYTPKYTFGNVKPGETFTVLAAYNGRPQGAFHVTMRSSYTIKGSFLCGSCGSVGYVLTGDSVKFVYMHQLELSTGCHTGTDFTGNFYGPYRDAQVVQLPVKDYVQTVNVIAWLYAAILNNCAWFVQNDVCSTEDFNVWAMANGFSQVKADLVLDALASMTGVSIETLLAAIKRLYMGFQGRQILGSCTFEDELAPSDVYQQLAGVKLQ
Outline: (§1)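 Protease activity is measured by cleavage of a synthetic fluorogenic substrate, read at 340/490 nm following 60 min at 30 °C. Enzyme and compound are pre-incubated 30 min beforehand.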

MERS Mpro = MERS Mpro (Middle East respiratory syndrome-related coronavirus, UniProt K9N7C7); assay: biochemical; parameters: species or system MERS-CoV
MERS Mpro, sequence (K9N7C7 3248-3553 limits assumed): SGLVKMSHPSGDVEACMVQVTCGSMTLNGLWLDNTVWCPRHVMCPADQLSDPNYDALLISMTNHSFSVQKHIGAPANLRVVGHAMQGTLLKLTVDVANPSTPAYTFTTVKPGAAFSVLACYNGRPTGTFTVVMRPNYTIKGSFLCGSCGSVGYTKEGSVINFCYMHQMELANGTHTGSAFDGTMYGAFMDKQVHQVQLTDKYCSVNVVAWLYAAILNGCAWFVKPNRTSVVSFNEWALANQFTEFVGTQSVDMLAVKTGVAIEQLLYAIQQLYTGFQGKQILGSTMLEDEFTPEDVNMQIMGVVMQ

HCoV-NL63 Mpro = HCoV-NL63 Mpro (Human coronavirus NL63, UniProt P0C6X5); assay: HCoV-NL63 Mpro enzymatic inhibition assay (fluorescence); assay type: biochemical
HCoV-NL63 Mpro, sequence (P0C6X5 2940-3242 limits assumed): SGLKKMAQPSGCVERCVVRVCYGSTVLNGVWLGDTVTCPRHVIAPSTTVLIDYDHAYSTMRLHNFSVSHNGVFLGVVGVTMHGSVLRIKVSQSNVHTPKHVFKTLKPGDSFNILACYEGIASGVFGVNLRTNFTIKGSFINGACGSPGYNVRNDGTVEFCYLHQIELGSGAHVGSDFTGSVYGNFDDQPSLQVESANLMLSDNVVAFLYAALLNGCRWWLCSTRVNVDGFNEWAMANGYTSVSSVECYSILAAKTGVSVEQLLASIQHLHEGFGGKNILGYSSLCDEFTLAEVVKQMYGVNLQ
Outline: as §1

HCoV-OC43 Mpro = HCoV-OC43 Mpro (Human coronavirus OC43, UniProt P0C6X6); assay: HCoV-OC43 Mpro enzymatic inhibition assay (fluorescence); assay type: biochemical
HCoV-OC43 Mpro, sequence (P0C6X6 3247-3549 limits assumed): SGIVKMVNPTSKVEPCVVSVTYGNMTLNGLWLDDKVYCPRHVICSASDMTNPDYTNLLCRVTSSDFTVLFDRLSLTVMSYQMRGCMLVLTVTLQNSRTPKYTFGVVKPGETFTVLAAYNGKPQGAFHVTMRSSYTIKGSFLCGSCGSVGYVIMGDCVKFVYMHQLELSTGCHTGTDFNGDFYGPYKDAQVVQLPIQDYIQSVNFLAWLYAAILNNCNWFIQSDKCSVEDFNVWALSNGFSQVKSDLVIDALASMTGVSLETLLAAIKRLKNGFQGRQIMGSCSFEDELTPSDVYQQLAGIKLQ
Outline: as §1

SARS-CoV-1 Mpro = SARS-CoV-1 Mpro (Severe acute respiratory syndrome coronavirus, UniProt P0C6X7); assay: biochemical
[1] = mean, 25 nM protein, 25 μM substrate, 30 min pre-incubation, 60 min at 30° C., read-out: Mpro_SARS-CoV-2 mean IC50

Row | Structure (SMILES) | IC50 (SARS-CoV-2 Mpro) [nM] | IC50 (HCoV-229E Mpro) [nM] | IC50 (HCoV-HKU1 Mpro) [nM] | IC50 (MERS Mpro) [nM] | IC50 (HCoV-NL63 Mpro) [nM] | IC50 (HCoV-OC43 Mpro) [nM] | IC50 (SARS-CoV-1 Mpro) [nM] | IC50 (SARS-CoV-2 Mpro; [1]) [nM]
1 | CC1(C)[C@@H]2[C@@H](C(=O)N[C@H](C=O)C[C@@H]3CCNC3=O)N(C(=O)c3cc4c(Cl)cc(Cl)cc4[nH]3)C[C@@H]21 [Compound 97, (1R,2S,5S)-3-(4,6-Dichloro-1H-indole-2-carbonyl)-6,6-dimethyl-N—((S)-1-oxo-3-((S)-2-oxopyrrolidin-3-yl)propan-2-yl)-3-azabicyclo[3.1.0]hexane-2-carboxamide] | 49.9 | 46 | 27 | 395 | 88.9 | 72 | 75.4 | 
2 | O=C[C@H](C[C@@H]1CCNC1=O)NC(=O)[C@@H]1C[C@@H](F)CN1C(=O)c1cc2ccccc2[nH]1 [Compound 98, (2S,4R)-4-fluoro-1-(1H-Indole-2-carbonyl)-N—((S)-1-oxo-3-((S)-2-oxopyrrolidin-3-yl)propan-2-yl)pyrrolidine-2-carboxamide] | 51.1 | 57 | 7 | 518 | 105 | 81 | 206 | 
3 | Cn1c(C(=O)N2C[C@H]3[C@@H]([C@H]2C(=O)N[C@H](C=O)C[C@@H]2CCNC2=O)C3(C)C)cc2c(F)cccc21 [Compound 100, (1R,2S,5S)-3-(4-Fluoro-1-methyl-1H-indole-2-carbonyl)-6,6-dimethyl-N—((S)-1-oxo-3-((S)-2-oxopyrrolidin-3-yl)propan-2-yl)-3-azabicyclo[3.1.0]hexane-2-carboxamide] | 54 | 106 | 94.4 | 877 | 398 | 133 | 92.5 | 
4 | CO[C@H]1C[C@@H](C(=O)N[C@H](C=O)C[C@@H]2CCNC2=O)N(C(=O)c2cc3ccccc3[nH]2)C1 [Compound 102, (2S,4S)-1-(1H-Indole-2-carbonyl)-4-methoxy-N—((S)-1-oxo-3-((S)-2-oxopyrrolidin-3-yl)propan-2-yl)pyrrolidine-2-carboxamide] | 63.2 | 118 | 83 | 631 | 199 | 141 | 204 | 
5 | C[C@H](C(=O)N1C[C@H]2[C@@H]([C@H]1C(=O)N[C@H](C=O)C[C@@H]1CCNC1=O)C2(C)C)c1ccccc1 [Compound 104, (1R,2S,5S)-6,6-Dimethyl-N—((S)-1-oxo-3-((S)-2-oxopyrrolidin-3-yl)propan-2-yl)-3-((S)-2-phenylpropanoyl)-3-azabicyclo[3.1.0]hexane-2-carboxamide] |  | 116 | 109 | 684 | 861 | 197 | 114 | 65.1
6 | O=C[C@H](C[C@@H]1CCNC1=O)NC(=O)[C@@H]1[C@H]2C[C@H](F)[C@H](C2)N1C(=O)c1cc2ccccc2[nH]1 [Compound 106, (1S,3S,4R,6S)-6-Fluoro-2-(1H-indole-2-carbonyl)-N—((S)-1-oxo-3-((S)-2-oxopyrrolidin-3-yl)propan-2-yl)-2-azabicyclo[2.2.1]heptane-3-carboxamide] | 73.7 | 91.2 | 39.7 | 859 | 156 | 118 | 176 | 
7 | C[C@@H]1C[C@@H](C(=O)N[C@H](C=O)C[C@@H]2CCNC2=O)N(C(=O)c2cc3ccccc3[nH]2)C1 [Compound 107, (2S,4R)-1-(1H-Indole-2-carbonyl)-4-methyl-N—((S)-1-oxo-3-((S)-2-oxopyrrolidin-3-yl)propan-2-yl)pyrrolidine-2-carboxamide] | 77 | 44.2 | 46.5 | 522 | 62 | 195 | 186 | 
8 | C=C1C[C@@H](C(=O)N[C@H](C=O)C[C@@H]2CCNC2=O)N(C(=O)c2cc3ccccc3[nH]2)C1 [Compound 108, (S)-1-(1H-Indole-2-carbonyl)-4-methylene-N—((S)-1-oxo-3-((S)-2-oxopyrrolidin-3-yl)propan-2-yl)pyrrolidine-2-carboxamide] | 78.5 | 48 | 29 | 291 | 38 | 193 | 159 | 
9 | O=C[C@H](C[C@@H]1CCNC1=O)NC(=O)[C@@H]1C[C@@H](Cc2ccccc2Cl)CN1C(=O)c1cc2ccccc2[nH]1 [Compound 109, (2S,4R)-4-(2-Chlorobenzyl)-1-(1H-indole-2-carbonyl)-N—((S)-1-oxo-3-((S)-2-oxopyrrolidin-3-yl)propan-2-yl)pyrrolidine-2-carboxamide] | 80.8 | 374 | 48.9 | 4320 | 2320 | 271 | 231 | 
10 | CC1CC(C(=O)N2C[C@H]3[C@@H]([C@H]2C(=O)N[C@H](C=O)C[C@@H]2CCNC2=O)C3(C)C)C1 (stereo partly drawn) [Compound 110, (1R,2S,5S)-6,6-Dimethyl-3-(3-methylcyclobutanecarbonyl)-N—((S)-1-oxo-3-((S)-2-oxopyrrolidin-3-yl)propan-2-yl)-3-azabicyclo[3.1.0]hexane-2-carboxamide] |  | 105 | 230 | 1160 | 1590 | 318 | 205 | 82.2
11 | CCOc1ccc2[nH]c(C(=O)N3C[C@H]4[C@@H]([C@H]3C(=O)N[C@H](C=O)C[C@@H]3CCNC3=O)C4(C)C)cc2c1 [Compound 111, (1R,2S,5S)-3-(5-Ethoxy-1H-indole-2-carbonyl)-6,6-dimethyl-N—((S)-1-oxo-3-((S)-2-oxopyrrolidin-3-yl)propan-2-yl)-3-azabicyclo[3.1.0]hexane-2-carboxamide] | 84.1 | 83.3 | 73.3 | 866 | 135 | 169 | 119 | 
12 | N#C[C@@H]1C[C@@H](C(=O)N[C@H](C=O)C[C@@H]2CCNC2=O)N(C(=O)c2cc3ccccc3[nH]2)C1 [Compound 112, (2S,4R)-4-Cyano-1-(1H-indole-2-carbonyl)-N—((S)-1-oxo-3-((S)-2-oxopyrrolidin-3-yl)propan-2-yl)pyrrolidine-2-carboxamide] | 84.6 | 149 | 120 | 2760 | 503 | 390 | 244 | 
13 | O=C[C@H](C[C@@H]1CCNC1=O)NC(=O)[C@@H]1C[C@@H]2CCCC[C@@H]2N1C(=O)c1cc2ccccc2[nH]1 [Compound 113, (2S,3aS,7aS)-1-(1H-Indole-2-carbonyl)-N—((S)-1-oxo-3-((S)-2-oxopyrrolidin-3-yl)propan-2-yl)octahydro-1H-indole-2-carboxamide] | 91.6 | 33.2 | 28.4 | 581 | 35.7 | 79.3 | 339 | 
14 | COc1cc2cc(C(=O)N3C[C@H]4[C@@H]([C@H]3C(=O)N[C@H](C=O)C[C@@H]3CCNC3=O)C4(C)C)[nH]c2cc1OC [Compound 114, (1R,2S,5S)-3-(5,6-dimethoxy-1H-Indole-2-carbonyl)-6,6-dimethyl-N—((S)-1-oxo-3-((S)-2-oxopyrrolidin-3-yl)propan-2-yl)-3-azabicyclo[3.1.0]hexane-2-carboxamide] | 97.3 | 56.2 | 30.6 | 429 | 99.3 | 77.9 | 149 | 

From patent US20260355212A1 (priority 2022, published 2026)
